“Also recorded” adds a separate entry of the source. Where no end group is shown, it is not given here.
Key:
gastric organoids = test: Inhibition of PEEPA-induced organoid growth by pathway inhibitors; assay type: cell-based, mouse
Method: For JAK‐Stat, MEK1 and EGFR inhibition, organoid cultures were respectively treated with Ruxotilinib (15 µM, Selleck, #s1039), U0126 (20 µM, Selleck, #s1102) and Afatinib (1 µM, Selleck, #s1011). The inhibitor was prepared following the manufacturer's instruction.

AG model mice = test: AG mouse model (MNNG + ranitidine): histology and histopathology scoring; assay type: in vivo; conditions: comparison Moludan, Sijunzi decoction, berberine
Method: (§1) For establishment of a mouse model of atrophic gastritis, normal mice had free access to water containing N‐methyl‐N‐nitro‐N‐nitrosoguanidine (MNNG, […]). Moreover, the mice were given 400 µL of ranitidine (8 mg mL^−1) in solution at a dose of 150 mg kg^−1 daily. After 20 weeks, the mice were euthanized and examined.
(§2) Periplaneta americana insects were cultivated in an industrialized facility and the ethanol extract of (PEEPA) was prepared with a standardized method, which was dissolved in the vehicle containing water, 15% glycerol and 0.2% potassium sorbate. PEEPA‐derived peptides (PEEPA‐P5) were dissolved to 500 ng mL^−1 in water for in vitro experiments and to 1 mg mL^−1 for in vivo experiments. Mice were administrated with PEEPA, PEEPA‐P5, or vehicle through oral gavage daily for 2 or 4 weeks.
For murine gastritis samples, histologic scoring was blindly done following standard criteria. In brief, the oxyntic atrophy scoring was determined by the absence of parietal and chief cells in mucosa and the gastritis histology index has three categories, inflammation, epithelial defects, and oxyntic atrophy. A larger score represents a more severe gastritis.

[1] = cited from earlier work
Description: Herein, by analyzing AG model mice and patient samples with genetic tracing, organoid cultures, and RNA‐seq, we uncovered GSC defects as a critical AG pathogenic factor, associated with decreased signaling of EGF, an important GSC niche molecule. […] We wanted to test their therapeutic effect on AG model mice generated with n‐methyl‐n‐nitro‐n‐nitrosoguanidine (MNNG) and ranitidine (Figure 1A).

[2] = no reference given; cited from earlier work
Description: Moreover, PEEPA‐P5 has unique properties compared to EGF. […] Third, PEEPA‐induced ERK and Stat1 activation is much slower.

[3] = system: EGFR, ERKs, Stat1, Akt1, Stat3 in GES-1 cells; test: Western blot of EGFR downstream signaling in GES-1 cells; assay type: cell-based, human; conditions: EGF 0.4 µM
Method: Western Blot: Tissue proteins were isolated using T-PER Tissue Protein Extraction Reagent (Thermo Fisher, #78510). Proteins of cultured cells were extracted using RIPA lysis buffer supplemented with 1 mM PMSF, […] pepstatin, leupeptin, and aprotonin. Equal amounts of total proteins were subjected to SDS-PAGE and transferred to PVDF membrane (Millipore). The primary antibodies include: p-Stat1 […]
(§3) results were visualized and quantified using the FluoChem M system (ProteinSimple).
Cell culture and cell viability assay: Human gastric normal epithelial cell line GES-1 was cultured in DMEM medium containing 10% fetal bovine serum and 1% pencillin- […]
streptomycin at 37℃ with 5% CO2. […]
(§4) TRIzol reagent. cDNA was reverse transcribed from 500 ng RNA by PrimeScript RT […]
(§5) Light Cycler 480. The sequences of primers are as follows: Gastrin-F: 5’- GGACAGGGACCAATGAGG-3’; Gastrin-R: 5’-
(§6) -3’; SST-F: 5’-ACCGGGAAAAGGAACTGG-3’;
(§7) SST-R: 5’-TTGCTGGGTTCGAGTTGGC-3’; Muc5ac-F: 5’-
(§8) AGCCTAGCCACCACCTTAG-3’; TFF1-F: 5’-[…]-3’;
(§9) TFF1-R: 5’-[…]-3’; TFF2-F: 5’- TGCTCTGGTAGAGGGCGAG-3’; TFF2-R: 5’-CGAGCTAGAGTCAAAGAG-3’;
(§10) Spdef-F: 5’-GGAGGAGACTCTTCTGAAG-3’; Spdef-R: 5’-
(§11) -3’. For human genes, hPCNA-F: 5’-
(§12) CAGCGGTAGGTGTCGAAGC-3’; hTFF2-F: 5’-[…]-
(§13) 3’; hTTF2-R: 5’-[…]-3’; hMuc5ac-F: 5’-
(§14) GCGCACAGAGGATGACAGT-3’; hATP4b-F: 5’-[…]-
(§15) 3’; hATP4b-R: 5’-[…]-3’; hGastrin-F: 5’-
GCCCCTGTACCTAAGGGTG-3’; hAxin2-F: 5’- […]

[4] = system: EGFR-Stat1 and EGFR-ERK signaling in AG organoids; test: Western blot of EGFR signaling in AG patient-derived gastric organoids; assay type: cell-based, human; conditions: organoids from AG patients
Method: (§16) The gastric antrum of mice was harvested and the middle part was cut open. After cleaning in PBS containing 1% pencillin‐streptomycin (PS) for several times, the food residue and other impurities were completely removed. The gastric gland epithelial layer was separated from the muscle layer with forceps under the stereoscope. The epithelial layer was cut into 2.5 mm long fragments, which were digested in 2.5 mM EDTA/DPBS at 4 °C for 1 h. The gland fragments were filtered through a 70 µm strainer (Thermo Fisher), washed with cold DPBS buffer, and centrifuged at 1000 rpm for 5 min. Afterward, the gland sediments were suspended in growth factor reduced phenol‐free Matrigel (Corning) and seeded into 48‐well plate. […] At different time points (Day 1, 3, 5, and 7), the organoids were observed under inverted microscope, and the organ diameter and bud numbers were measured to determine the levels of cell proliferation. […]
as §3
(§17) Cell culture and cell viability assay: Human gastric normal epithelial cell line GES-1 was cultured in DMEM medium containing 10% fetal bovine serum and 1% pencillin-streptomycin at 37℃ with 5% CO2. […] After 3 days, substrate tetrazolium salt was added to each sample and incubated at 37℃ for 2 hrs and the absorbance at 450 nm was measured using BioTeck. […]

[5] = system: EGFR-Stat1 and EGFR-ERK signaling in NAG organoids; test: Western blot of EGFR signaling in NAG patient-derived gastric organoids; assay type: cell-based, human; conditions: organoids from NAG patients
Method: as §16, §3, §17

[6] = system: liver and kidney of AG model mice; test: Body weight and liver/kidney histology in AG model mice; assay type: in vivo, mouse; conditions: PEEPA-P5; H&E, representative of three mice
Method: as §1, §2

GES-1 cells = test: Cell viability assay (CCK-8); assay type: cell-based, human
Method: Cell culture and cell viability assay: Human gastric normal epithelial cell line GES-1 was cultured in DMEM medium containing 10% fetal bovine serum and 1% pencillin-streptomycin at 37℃ with 5% CO2. For cell viability assay, Cell Counting Kit-8 (CCK-8) was purchased from KeyGEN BioTECH Corp., Ltd. The cells were cultured in 96-wells plate and PEEPA-P5 was added in each well with different concentrations. After 3 days, substrate tetrazolium salt was added to each sample and incubated at 37℃ for 2 hrs and the absorbance at 450 nm was measured using BioTeck. […]
as §4, §5, §6, §7, §8, §9, §10, §11, §12, §13, §14, §15
GCCCCTGTACCTAAGGGTG-3’; hAxin2-F: 5’-
RNA sequencing: The gastric muscle layer was removed under the stereoscope and the […]

[7] = Retention / stability in murine stomach (P5-fluorescein); assay type: in vivo

N#CC[C@H](C1CCCC1)n1cc(-c2ncnc3[nH]ccc23)cn1 [Ruxo, ruxolitinib]
effect on PEEPA-induced organoid growth and differentiation (gastric organoids; Jak inhibitor Ruxo 15 µM, n=6 (growth), n=3 (qPCR)): impeded PEEPA‐induced organoid growth and differentiation | expression of differentiation markers in gastric organoids (gastric organoids; Ruxo, qPCR, mean ± SD, n=3): suppressed the expression of differentiation markers

N#CC(=C(/N)Sc1ccccc1N)/C(C#N)=C(/N)Sc1ccccc1N [U0126]
effect on PEEPA-induced organoid growth (gastric organoids; ERK inhibitor U0126 20 µM, mean ± SD, n=3): suppressed PEEPA‐induced organoid growth

CN(C)C/C=C/C(=O)Nc1cc2c(Nc3ccc(F)c(Cl)c3)ncnc2cc1O[C@H]1CCOC1 [afatinib]
effect on PEEPA-induced organoid growth (gastric organoids; EGFR inhibitor afatinib 1 µM, mean ± SD, n=3): blocked the pro‐growth effect of PEEPA on gastric organoids

COc1ccc2cc3[n+](cc2c1OC)CCc1cc2c(cc1-3)OCO2 [berberine, reference compound]
restoration of gland structure, gastritis histology index and oxyntic atrophic score (compared with PEEPA) (AG model mice): only PEEPA restored the gastric gland structure | reported therapeutic effects on AG ([1]; ref [16]): therapeutic effects on AG

EGF: GSC niche molecule; EGF protein used as comparison
stability in acidic stomach environment [2]: instability of EGF in acidic stomach environment | downstream signaling activated by EGF [3]: activates ERK, Akt1, and Stat1/3 signaling | sensitivity to EGF, AG organoids [4]: organoids from AG patients are insensitive | secretion of defensin 3 ([1]; ref [15]): promotes secretion of defensin 3 | sensitivity to EGF, NAG organoids [5]: organoids from NAG patients are highly sensitive to EGF

PAAEPVPLVKQD [PEEPA-P5]
effect on liver or kidney [6]: little effect on the kidney or liver structure; also recorded: no obvious effect on the liver or kidney | IC50 (GES-1 cells): 284 µM | toxicity towards GES-1 cells (GES-1 cells; CCK-8, 3 days): low cell toxicity | stability in the acidic environment of the stomach ([7]; inferred from retention of P5-fluorescein in mouse stomach): relatively stable in the acidic environment of the stomach | retention time in the stomach ([7]; mouse, oral gavage, measured using P5-fluorescein (PEEPA-P5-FITC), fluorescence at different time points): 3.09 h

From publication PMC11132046, “A Natural Peptide from A Traditional Chinese Medicine Has the Potential to Treat Chronic Atrophic Gastritis by Activating Gastric Stem Cells” (Advanced Science, 2024)
